{
  "source": "patent US20020173538A1",
  "about": "“Method for sensitizing cancer cells to cancer therapies with a mevalonate-reducing compound” (priority 2000, published 2002)",
  "assay_type_in_all_cases": "cell-based, human",
  "key": {"[1]": {"tested_on": "cholesterol biosynthesis in Hep G2 cells", "assay": "Cholesterol biosynthesis, incorporation of [2, ^3H]acetate into [^3H]cholesterol, Hep G2", "settings": "for inhibition at 10 µM / inhibition at 1 µM / inhibition at 5 µM / inhibition at 50 µM: Homo sapiens, read-out: percentage of inhibition of cholesterol biosynthesis"}, "[2]": {"tested_on": "cholesterol biosynthesis in Hep 3B cells", "assay": "Cholesterol biosynthesis, incorporation of [2, ^3H]acetate into [^3H]cholesterol, Hep 3B", "settings": "for inhibition at 10 µM / inhibition at 1 µM / inhibition at 5 µM / inhibition at 50 µM: Homo sapiens, Hep3B, read-out: percentage of inhibition of cholesterol biosynthesis"}, "[3]": {"tested_on": "Hep 3B cells", "assay": "Sub-G1 population and DNA fragmentation (apoptosis), Hep 3B", "settings": "compared with Hep G2 cells treated in the same condition (FIG. 12)"}},
  "note": "Read-outs that look alike come from different tables or passages of the source.",
  "data": [
    {"compound": "CC[C@H](C)C(=O)O[C@H]1C[C@@H](C)C=C2C=C[C@H](C)[C@H](CC[C@@H]3C[C@@H](O)CC(=O)O3)[C@H]21", "note": "[Lovastatin, lovastatin]", "values": [
      {"measurement": "inhibition at 10 µM", "setting": "[1]; HepG2, 2 h", "value": 91.8, "unit": "%"},
      {"measurement": "inhibition at 10 µM", "setting": "[1]; HepG2, 6 h", "value": 94, "unit": "%"},
      {"measurement": "inhibition at 10 µM", "setting": "[1]; HepG2, 12 h", "value": 93.3, "unit": "%"},
      {"measurement": "inhibition at 1 µM", "setting": "[1]; HepG2, 24 h", "value": 50.7, "unit": "%"},
      {"measurement": "inhibition at 5 µM", "setting": "[1]; HepG2, 24 h", "value": 73.2, "unit": "%"},
      {"measurement": "inhibition at 10 µM", "setting": "[1]; HepG2, 24 h", "value": 87.2, "unit": "%"},
      {"measurement": "inhibition at 50 µM", "setting": "[1]; HepG2, 24 h", "value": 95.8, "unit": "%"},
      {"measurement": "inhibition at 1 µM", "setting": "[1]; HepG2, 48 h", "value": -15.3, "unit": "%"},
      {"measurement": "inhibition at 5 µM", "setting": "[1]; HepG2, 48 h", "value": 48.5, "unit": "%"},
      {"measurement": "inhibition at 10 µM", "setting": "[1]; HepG2, 48 h", "value": 69.4, "unit": "%"},
      {"measurement": "inhibition at 50 µM", "setting": "[1]; HepG2, 48 h", "value": 85.1, "unit": "%"},
      {"measurement": "[^3H]cholesterol", "setting": "[1]; lovastatin 1 μM, 24 hr", "value": "30.14 10^2 dpm/10^5 cells/hr"},
      {"measurement": "[^3H]cholesterol", "setting": "[1]; lovastatin 1 μM, 48 hr", "value": "70.43 10^2 dpm/10^5 cells/hr"},
      {"measurement": "[^3H]cholesterol", "setting": "[1]; lovastatin 5 μM, 24 hr", "value": "16.39 10^2 dpm/10^5 cells/hr"},
      {"measurement": "[^3H]cholesterol", "setting": "[1]; lovastatin 5 μM, 48 hr", "value": "31.46 10^2 dpm/10^5 cells/hr"},
      {"measurement": "[^3H]cholesterol", "setting": "[1]; lovastatin 10 μM, 2 hr", "value": "5.00 10^2 dpm/10^5 cells/hr"},
      {"measurement": "[^3H]cholesterol", "setting": "[1]; lovastatin 10 μM, 6 hr", "value": "3.67 10^2 dpm/10^5 cells/hr"},
      {"measurement": "[^3H]cholesterol", "setting": "[1]; lovastatin 10 μM, 12 hr", "value": "4.07 10^2 dpm/10^5 cells/hr"},
      {"measurement": "[^3H]cholesterol", "setting": "[1]; lovastatin 10 μM, 24 hr", "value": "7.83 10^2 dpm/10^5 cells/hr"},
      {"measurement": "[^3H]cholesterol", "setting": "[1]; lovastatin 10 μM, 48 hr", "value": "18.71 10^2 dpm/10^5 cells/hr"},
      {"measurement": "[^3H]cholesterol", "setting": "[1]; lovastatin 50 μM, 24 hr", "value": "2.54 10^2 dpm/10^5 cells/hr"},
      {"measurement": "[^3H]cholesterol", "setting": "[1]; lovastatin 50 μM, 48 hr", "value": "9.13 10^2 dpm/10^5 cells/hr"},
      {"measurement": "inhibition at 10 µM", "setting": "[2]; 2 h", "value": 94.1, "unit": "%"},
      {"measurement": "inhibition at 10 µM", "setting": "[2]; 6 h", "value": 92.4, "unit": "%"},
      {"measurement": "inhibition at 10 µM", "setting": "[2]; 12 h", "value": 89.5, "unit": "%"},
      {"measurement": "inhibition at 1 µM", "setting": "[2]; 24 h", "value": 50, "unit": "%"},
      {"measurement": "inhibition at 5 µM", "setting": "[2]; 24 h", "value": 85.4, "unit": "%"},
      {"measurement": "inhibition at 10 µM", "setting": "[2]; 24 h", "value": 91.4, "unit": "%"},
      {"measurement": "inhibition at 50 µM", "setting": "[2]; 24 h", "value": 95.1, "unit": "%"},
      {"measurement": "inhibition at 1 µM", "setting": "[2]; 48 h", "value": 68.2, "unit": "%"},
      {"measurement": "inhibition at 5 µM", "setting": "[2]; 48 h", "value": 86.2, "unit": "%"},
      {"measurement": "inhibition at 10 µM", "setting": "[2]; 48 h", "value": 94, "unit": "%"},
      {"measurement": "inhibition at 50 µM", "setting": "[2]; 48 h", "value": 95.5, "unit": "%"},
      {"measurement": "suppression of cholesterol synthesis", "setting": "[2]; after prolonged treatment with lovastatin", "value": "> 90", "unit": "%"},
      {"measurement": "[^3H]cholesterol", "setting": "[2]; lovastatin 1 μM, 24 hr", "value": "29.84 10^2 dpm/10^5 cells/hr"},
      {"measurement": "[^3H]cholesterol", "setting": "[2]; lovastatin 1 μM, 48 hr", "value": "18.95 10^2 dpm/10^5 cells/hr"},
      {"measurement": "[^3H]cholesterol", "setting": "[2]; lovastatin 5 μM, 24 hr", "value": "8.69 10^2 dpm/10^5 cells/hr"},
      {"measurement": "[^3H]cholesterol", "setting": "[2]; lovastatin 5 μM, 48 hr", "value": "8.25 10^2 dpm/10^5 cells/hr"},
      {"measurement": "[^3H]cholesterol", "setting": "[2]; lovastatin 10 μM, 2 hr", "value": "3.54 10^2 dpm/10^5 cells/hr"},
      {"measurement": "[^3H]cholesterol", "setting": "[2]; lovastatin 10 μM, 6 hr", "value": "4.52 10^2 dpm/10^5 cells/hr"},
      {"measurement": "[^3H]cholesterol", "setting": "[2]; lovastatin 10 μM, 12 hr", "value": "6.25 10^2 dpm/10^5 cells/hr"},
      {"measurement": "[^3H]cholesterol", "setting": "[2]; lovastatin 10 μM, 24 hr", "value": "5.13 10^2 dpm/10^5 cells/hr"},
      {"measurement": "[^3H]cholesterol", "setting": "[2]; lovastatin 10 μM, 48 hr", "value": "3.59 10^2 dpm/10^5 cells/hr"},
      {"measurement": "[^3H]cholesterol", "setting": "[2]; lovastatin 50 μM, 24 hr", "value": "2.92 10^2 dpm/10^5 cells/hr"},
      {"measurement": "[^3H]cholesterol", "setting": "[2]; lovastatin 50 μM, 48 hr", "value": "2.71 10^2 dpm/10^5 cells/hr"},
      {"measurement": "Sub-G1 population and DNA fragmentation (markers of cell apoptosis)", "setting": "[3]", "value": "observed in a higher percentage and lower dose of lovastatin treatment than those in Hep G2 cells"}
    ]}
  ]
}
